Results on one molecule are retold here after patent publication US20080038288A1, “Prevention of damage in hippocampus of fetus/newborn infant due to maternal gestational hypertension” (priority 2006, published 2008).

Assay [1] relates to hippocampus dentate gyrus proliferating cells. Put plainly: BrdU labeling, positive cell counts at hippocampus dentate gyrus of P30 rats born to L-NAME rats. The class given is in vivo, rat. Particulars: dam given L-NAME plus gastric feeding E14-20, mean ± sd. The source says: (§1) Animal groups and administration of medication. Gestational hypertension (GH) was produced in rats using the L-NAME (a type of NOS inhibitor) method of Yallampalli et al. [Yallampalli et al., Am J Obstet Gynecol., 1993, 169:1316-1320]. Forty mature (11-12 weeks old) SD female rats weighing 200-230 g; 10 mature (13-15 weeks old) SD male rats weighing 250-300 g. At a ratio of […], the rats were paired in cages, on the second day the female rats' vaginal secretions were observed (smear technique) and those containing sperm were considered to be at day 0 of pregnancy (E0). […] L-NAME was given by two injections at a total dose of 60 mg/kg/day. Two hours after each injection, the pregnant rats received gastric feeding of distilled water, L-arginine or GLSs. The GLSs were provided by Kindway International Ltd./Holistol International Ltd., license number GANSPSP04040104. The L-arginine was purchased from the Amresco Company.
Preparation of histological materials. Some of the pregnant rats were anesthetized at E21 day with an i.p. injection of 1% pentobarbital (35 mg/kg). The embryos were removed from the uterus. Some were placed in a freezer dish and the hippocampal tissue was removed from the brains of the embryos, placed in an Eppendorf tube and stored at −80° C. to await testing. The rest of the embryonic brains were fixed in a 4% paraformaldehyde solution. […]
(In general: Incorporation of labelled thymidine or its analogues reports DNA synthesis.)

The test system of assay [2] is E21 day rat embryo hippocampal cells. Nature of the assay: Flow cytometry of hippocampal cell cycle in E21 embryos of L-NAME gestational hypertension rats. The class given is in vivo. Particulars: dam given L-NAME 60 mg/kg/day i.p. plus gastric feeding E14-20, mean ± sx.
Description: as §1
(§2) Preparation of histological materials. Some of the pregnant rats were anesthetized at E21 day with an i.p. injection of 1% pentobarbital (35 mg/kg). The embryos were removed from the uterus. […]
Hippocampal tissue separated from E21 day rat embryos was placed in a culture dish and sheared into pieces, 0.01 mol/L phosphate buffered saline (PBS) was added and repeatedly triturated, filtered through a 100-mesh screen, and the single-cell suspension obtained was fixed in 75% alcohol at 4° C. to await testing. Before testing, the extracted cell suspension was centrifuged to remove the supernatant, 100 μL RNase (0.1 mg/L) added, placed at 37° C. for 30 min, after rinsing with normal saline, propidium iodine (PI) stain (0.05 mg/L, 0.03% Triton X-100 0.5 mL) was added, placed at 4° C. protected from light to react for 30 min, then measured. In flow cytometry, a 488 nm laser used Cell Fit software to collect 10,000 cells/specimen cell cycle data was analyzed and one-way ANOVA testing performed for statistical processing.
A general note: A flow cytometer gives signals particle by particle.

The test system of another assay is hippocampus microvessels. Put plainly: Hippocampal microvessel density, vWF immunohistochemical staining, Weidner counting. It is filed as in vivo, rat. Particulars: dam given L-NAME plus gastric feeding E14-20, mean ± sd.
Description: as §1, §2
Hippocampal microvessel density: The Weidner counting method was used to determine the microvessel standard [Weidner et al., Am J Pathol. […] Under a light microscope (200×), microvessel numbers were counted in five visual fields. […]

Assay [3] deals with hippocampus CA1, CA3 and DG neurons. Put plainly: Morphometric analysis: hippocampal cell layer thickness and neuron body count, neutral red staining. The class given is in vivo, rat. The note with it: P30 rats, mean ± sd.
Description: as §1
Preparation of histological materials. Some of the pregnant rats were anesthetized at E21 day with an i.p. injection of 1% pentobarbital (35 mg/kg). The embryos were removed from the uterus. Some were placed in a freezer dish and the hippocampal tissue was removed from the brains of the embryos, placed in an Eppendorf tube and stored at −80° C. to await testing. The rest of the embryonic brains were fixed in a 4% paraformaldehyde solution. Another group of pregnant rats went into normal labor, and the young rats were fed and raised until 30 days of […] (P30). Some of the young rats received the preceding pentobarbital anesthesia and their hippocampal tissue was placed in a freezer dish and stored to await testing. The rest of the rats in the P30 group received pentobarbital anesthesia as above, their chests were opened and an aortic cannula inserted through the left ventricle. One group of young rats was first quickly perfused with normal saline and then 4% paraformaldehyde 0.1 mol/L phosphate buffer (PB) (pH 7.4). Then the fixed cerebral corona was continuously frozen and sectioned at a thickness of 15 μm. Sectioning started at the alveus of the hippocampus, one section every 300 μm, and six sections were taken from each brain, for a collection of six sets of sections.
Morphometric analysis. Various cell layer thicknesses from various areas of the hippocampus were measured and a neuron body count obtained. Under a low-magnification microscope, two visual fields were randomly selected from the CA1, CA3 and DG regions. Under a high-magnification microscope (200×), the cell layer thickness was measured and the number of nucleated neuron bodies counted. The cell layer thicknesses or body numbers are the averages of two visual fields.

Marks after values point to notes of the source that are not given here.

As to `N=C(N)NCCC[C@H](N)C(=O)O` [L-arg, L-arginine], the “BrdU positive cell counts at hippocampus dentate gyrus” value in assay [1] is given as 38.00 ± 1.04^c. In addition, in assay [2], the “Percentage of hippocampal cells in G1/G0 phase” value was 82.74 ± 2.75^h %, the “Percentage of hippocampal cells in G2/M phase” value is 1.44 ± 0.44^i % and the “Percentage of hippocampal cells in S phase” value is on record as 15.34 ± 2.92^g %. In addition, the “Microvessel density at the hippocampus, E21” value in the assay on hippocampus microvessels (E21 embryos) is 39.80 ± 4.79^e. Also, the “Microvessel density at the hippocampus, P30” value in the assay on hippocampus microvessels (P30 rats) is 75.25 ± 3.86^f. Further, in assay [3] (CA1 area), the “Hippocampal cell layer thickness CA1” value was 115.23 ± 9.49^m μm and the “Neuron body counts CA1” value is reported as 31.80 ± 1.15^n num. Besides, in assay [3] (CA3 area), the “Hippocampal cell layer thickness CA3” value is reported as 90.64 ± 6.18^o μm and the “Neuron body counts CA3” value is 23.00 ± 0.83^p num. Further, the “Hippocampal cell layer thickness DG” value in assay [3] (DG area) is 64.87 ± 4.42^q μm.
